Patent publication US20230042367A1, “METHODS AND COMPOSITIONS FOR TREATING CANCERS HAVING F-BOX AND WD-REPEAT PROTEIN 7 (FBXW7) ALTERATIONS AND/OR CYCLIN L1 (CCNL1) GAIN OR AMPLIFICATION” (THE GOVERNING COUNCIL OF THE UNIVERSITY OF TORONTO, priority 2019, published 2023)
Entries after “also recorded” stand apart in the source; their conditions may differ.

Experiments:
[1] = tested on: FBXW7^−/− HPAF-II cells; test: Dose-response assay (CellTiter-Glo), FBXW7 knockout HPAF-II cells compared with wildtype; type: cell-based
Procedure: (§1) HPAF-II, C33A, SiHa HEK293T cells (ATCC) were grown in DMEM (4.6 g/L D-glucose, L-glutamine)+10% fetal bovine serum+5% Anti-Anti at 37° C. and 5% CO2. Caski cells were grown in RPMI-1640+10% fetal bovine serum+5% Anti-Anti at 37° C. and 5% CO2. For serum starvation, regular growth media was removed, and replaced with DMEM (4.6 g/L D-glucose, L-glutamine)+5% Anti-Anti for 18 h. CHIR99021 was used at 4 nM.
(§2) HPAF-II mutant cells (APC-truncation, AXIN-knockout, FBXW7-knockout) were transfected via electroporation using the Neon system (Thermo) under the following conditions; 2 μg of DNA (sgRNA construct pX330) 1150V, 30 ms and 2 pulses. Cells were allowed to recover for 2 days before the addition of 100 nM LGK-974 to enrich for mutations driving Wnt pathway activation. Cell lines were validated for editing using TIDE (tracking of insertions and deletions (Brinkman et al 2014).
(§3) All cells were seeded in triplicate at 2500 cells/well. The following day, a dose-response treatment of OTS964 (Cayman Chemicals) or AZD6738 (SelleckChem). At 3d and 7d of treatment, respectively cell viability was determined using CellTiter-Glo (Promega) as per manufacturer's instructions.

[2] = tested on: C-33-A cells (FBXW7 mutation); test: Dose-response assay in cervical cancer cell line panel (Ca-Ski, DoTc2-4510, SiHa, C-33-A); type: cell-based
Procedure: as §1, §3

[3] = tested on: CCNL1; test: Western blot of CCNL1 levels after GSK3 inhibitor treatment; type: cell-based; details: CHIR99021 used at 4 nM, FIG. 6
Procedure: Using the methods of Example 8, a co-expression analysis followed by cycloheximide chase illustrated the effect of FBXW7 expression on CCNL1 stability. […] Mutation in the substrate-recognition domain of FBXW7 lead to a robust stabilization of CCNL1 levels.
as §1
All samples were lysed in 4× Laemmli Sample Buffer (50 mM Tris-HCl pH 6.8, 2% SDS, 10% glycerol, 1% β-mercaptoethanol, 12.5 mM EDTA, 0.02% bromophenol blue). Lysates were sonicated, boiled, and centrifuged to pellet insoluble material. Approx 10 μg were loaded per sample on a 4-15% SDS-PAGE Stain-Free TGX BioRad precast gel. Gels were run at 150V for approximately 60 minutes. Gels were transferred to methanol-activated PVDF at 90V for 120 minutes. Membranes were blocked in 5% milk in Tris-buffered Saline (pH 7.4)+1% Tween-20 (TBS-T) for 1 hr, and incubated with corresponding primary antibodies overnight. […]

[4] = tested on: HPAF-II cells; test: Clonogenic assay of LGK974 sensitivity in HPAF-II wild type and knockout cells; type: cell-based
Procedure: As validation, each of the genes discovered in this LGK974 positive selection screen were knocked-out in HPAF-II cells and the sensitivity to LGK974 was determined using clonogenic assays. The assay tested HPAF-II wild type cells, HPAF-II wild type cells treated with LGK974, HPAF-II cells with the gene APC knocked out and treated with LGK974, HPAF-II cells expressing a degradation resistant mutant (DegR)-ßCatenin and treated with LGK974, HPAF-II cells with the AXIN gene knocked out and treated with LGK974, and HPAF-II cells with the FBXW7 gene knocked out and treated with LGK974.
as §2

[5] = tested on: HPAF-II cells; test: LGK974 treatment of RNF43 mutant HPAF-II cells (proliferation, LD90 dose for CRISPR screen); type: cell-based
Text: HPAF-II cells harbor a mutation in RNF43 a negative regulator of the Wnt signaling pathway and as a result these cells are exquisitely dependent on the presence of Wnt ligands. […] Genome wide CRISPR-Cas9 screen was used to identify genes underlying PORCN inhibitor sensitivity, specifically, gene knockouts mediating LGK974 resistance. To do this, the RNF43 mutant cell line HPAF-II was transduced with the genome-wide TKO gRNA library and treated with a LD90 dose of the PORCN inhibitor LGK974 (Liu et al 2013). Under these conditions, the vast majority of cells undergo cell cycle arrest, but a few clones bypassed this process and emerged during the selection. Next generation sequencing of the resistant clones identified gRNA targeting several known negative regulators of Wnt signalling—including APC and AXIN1 that re-activated the ßcatenin pathway distal to the receptor complex. […]
HPAF-II cells were infected with the Toronto knockout library version 1 (TKOv1)—a pooled sgRNA lentiviral library (Hart et al2015) at a multiplicity of infection of 0.3, in the presence of 8 μg/ml polybrene (Sigma) for 24 h. […] Sequenced gRNAs were mapped to the TKOv1 library using MaGECK 0.5.3, and read counts were normalized by total reads per sample before averaging biological replicates and determining gRNA enrichment.

[6] = tested on: wildtype HPAF-II cells; test: Dose-response assay (CellTiter-Glo), wildtype HPAF-II cells; type: cell-based; details: FIG. 9
Procedure: as §1, §3

[7] = tested on: Cervical cancer patient-derived cancer organoids; test: Viability of patient-derived cervical cancer organoids (Cell Titer Glo); details: 7 days treatment, a subset of organoid models, FIGS. 10 and 11
Procedure: Cervical cancer patient-derived cancer organoids were treated with dose-response of OTS964 for 7 days. Following treatment, organoids were imaged, and viability was measured using Cell Titer Glo.

C[C@@H]1COCCN1c1cc(C2([S@](C)(=N)=O)CC2)nc(-c2ccnc3[nH]ccc23)n1 [AZD6738, (R)-imino(methyl)(1-(6-((R)-3-methylmorpholino)-2-(1H-pyrrolo[2,3-b]pyridin-4-yl)pyrimidin-4-yl)cyclopropyl)-I6-sulfanone]
cell viability under AZD6738, FBXW7^−/− vs wildtype HPAF-II ([1]; 7d treatment, FIG. 15B): much more susceptible; also recorded: hypersensitivity
enhanced activity in C33A compared to Caski and SiHa cell lines ([2]; AZD6738, FIG. 15D): 4-6 fold
cell viability under AZD6738 in cervical cancer cell line panel ([2]; C33A, FIG. 15D): highest susceptibility; also recorded: highly susceptible

Cc1c[nH]c(-c2cnc(NCCNc3ccc(C#N)cn3)nc2-c2ccc(Cl)cc2Cl)n1 [CHIR99021]
CCNL1 levels after treatment with GSK3 inhibitor [3]: increased levels of CCNL1

Cc1cc(-c2ncc(CC(=O)Nc3ccc(-c4cnccn4)cn3)cc2C)ccn1 [LGK974]
growth under LGK974 after knockout of APC and AXIN1 ([4]; APC and AXIN1 knockout HPAF-II): fully rescued the growth
resistance to LGK974 after knockout of FBXW7 ([4]; FBXW7 knockout HPAF-II): partial resistance
growth of HPAF-II wildtype cells under LGK974 ([4]; wildtype (RNF43 mutation)): robustly arrested the growth
LD90 dose ([5]; HPAF-II cells, positive selection screen): 20 nM
effect of LGK974 treatment on HPAF-II cells ([5]; RNF43 mutant HPAF-II): cell cycle arrest and strong inhibition of proliferation

Cc1cc(O)c(-c2ccc([C@@H](C)CN(C)C)cc2)c2c1[nH]c(=O)c1sccc12 [OTS964, 9-[4-[(1R)-2-(dimethylamino)-1-methylethyl]phenyl]-8-hydroxy-6-methyl-thieno[2,3-c]quinolin-4(5H)-one]
sensitivity of FBXW7 mutant cells to CDK11 inhibition relative to wildtype ([1]; FBXW7^−/− vs wildtype HPAF-II cells, proliferation, FIG. 9): at least 5 times
proliferation response to OTS964, FBXW7 knockout vs wild type cells ([1]; HPAF-II, 3d treatment, FIG. 9): striking increase in sensitivity; also recorded: hypersensitive
dose at which inhibition in wildtype cells was seen (only at the highest dose tested) [6]: 1 µM
OTS964 dose response in cervical cancer cell line panel ([2]; C-33-A vs Ca-Ski, DoTc2-4510, SiHa, FIG. 14A): hypersensitive
relative viability of cervical cancer organoids under OTS964 [7]: sensitive
